Data on three molecules can be found in PMC8955525 (2022).

Test [1] relates to FM1 r(CUG)10 (FM1 CUG × 10, r10FAM), annealed (RNA, repeat, fluorescein (fam) covalently incorporated between C13 and U14 (5th CUG repeat, hairpin loop)) CUGCUGCUGCUGCUGCUGCUGCUGCUGCUG
The experiment in a line: fluorescence microplate titration, sigmoidal fit. The conditions noted are these: none stated; nuclease-free water, room temperature; 200 nM RNA; apparent.

Test [2] concerns native r(CUG)10 (r10) (RNA, repeat) CUGCUGCUGCUGCUGCUGCUGCUGCUGCUG
The experiment in a line: UV melting, 260 nm. The note with it: 100 mM NaCl, 10 mM sodium phosphate, pH 7.0, 1.5 µM RNA, L/M = 1, Tm 55.8 to 57.4 °C buffer, Tm 57.5 (L/M 0), 58.7 (L/M 1), 60.7 °C (L/M 16).

Test [3] relates to FM1 r(CUG)10 (FM1 CUG × 10, r10FAM), annealed (RNA, repeat, fluorescein (fam) covalently incorporated between C13 and U14 (5th CUG repeat, hairpin loop)) CUGCUGCUGCUGCUGCUGCUGCUGCUGCUG
The experiment in a line: UV melting, 260 nm. The note with it: 100 mM NaCl; 10 mM sodium phosphate, pH 7.0; 1.5 µM RNA; L/M = 1; Tm 55.8 to 57.4 °C.

Test [4] shares this test system. The test can be described thus: fluorometer fluorescence titration, sigmoidal fit. The note with it: none stated; nuclease-free water, 25 °C; 200 nM RNA; apparent; Langmuir fit 671 nM, quadratic fit 247 nM.
The test system is the same in test [5]. The experiment in a line: fluorescence melting of internal FAM. The note with it: none stated; nuclease-free water; 200 nM RNA; L/M = 1; Tm 52.2 to 54.9 °C; lower Tm at L/M > 1.
Test [6] concerns native r(CUG)7 (r7) (RNA, repeat) CUGCUGCUGCUGCUGCUGCUG
The test can be described thus: UV melting, 260 nm. The note with it: 100 mM NaCl; 10 mM sodium phosphate, pH 7.0; 1.5 µM RNA; L/M = 1; Tm 59.8 to 64.0 °C.

For `NC[C@@H]1O[C@H](O[C@H]2[C@@H](O)[C@H](O[C@@H]3[C@@H](O)[C@H](N)C[C@H](N)[C@H]3O[C@H]3O[C@H](CN)[C@@H](O)[C@H](O)[C@H]3N)O[C@@H]2CO)[C@H](N)[C@@H](O)[C@@H]1O`, the Kd in test [1] was determined as 1.054 µM.

As usually defined, the ΔTm is the change in melting temperature against a reference sample. With `CN[C@@H]1[C@@H](O)[C@@H](O[C@@H]2[C@@H](O)[C@H](O[C@H]3OC(CN)=CC[C@H]3N)[C@@H](N)C[C@H]2N)OC[C@]1(C)O`, the binding result in test [2] is given as “yes”. For the same molecule, the values for the ΔTm in test [3], in test [5] and in test [6] were ~ 1.5 °C, 2.7 °C and 4 °C, respectively. Also, the Kd in test [4] is 0.945 µM; in test [1], 0.928 µM.

For `NC[C@H]1O[C@H](O[C@H]2[C@H](O)[C@@H](O[C@H]3O[C@H](CO)[C@@H](O)[C@H](N)[C@H]3O)[C@H](N)C[C@@H]2N)[C@H](O)[C@@H](O)[C@@H]1O`, in test [1], the Kd was 1.555 µM.
